The subject of experiment [1] is MET-amplified gastric cancer cell line GTL-16. In words: GTL-16 proliferation assay (MTS). Type of experiment: cell-based. The settings on record: Homo sapiens, GTL-16 cells, 72 h incubation. On the procedure: (§1) C-Met Dependent Cellular Assays
(§2) A number of compounds of the present invention were assayed in a c-Met dependent proliferation and phosphorylation assay as follows.
GTL-16 proliferation assay: the MET-amplified gastric cancer cell line GTL-16 was grown under standard cell culture conditions in DMEM [Dulbecco's Modified Eagle Medium] (high glucose) supplemented with 10% heat-inactivated fetal calf serum and 2 mM L-glutamine. For proliferation assays, cells were seeded at 3000 per well in 96-well-plates. 24 h later, a 10-point dilution series of each compound (3-fold steps, ranging from […]) was prepared in DMSO. Compound were then diluted 1000-fold in growth media in two steps and added to cells in triplicates, resulting in a final volume of […] per well and maximal final compound concentrations of […]. A DMSO-only control was included. Cells were incubated for 72 h and the amount of viable cells was then measured by adding […] of MTS reagent (CellTiter 96® AQueous Non-Radioactive Cell Proliferation Assay, Promega), further incubation for 30′, and reading the optical density at 490 nm.

The target in another experiment is T1, c-Met (Homo sapiens, UniProt P08581).
T1 construct: adapted to measure the phosphorylation of endogenous cellular proteins in cell lysates; endogenous in cells; host or cells: GTL-16
T1 sequence (P08581 25-1390): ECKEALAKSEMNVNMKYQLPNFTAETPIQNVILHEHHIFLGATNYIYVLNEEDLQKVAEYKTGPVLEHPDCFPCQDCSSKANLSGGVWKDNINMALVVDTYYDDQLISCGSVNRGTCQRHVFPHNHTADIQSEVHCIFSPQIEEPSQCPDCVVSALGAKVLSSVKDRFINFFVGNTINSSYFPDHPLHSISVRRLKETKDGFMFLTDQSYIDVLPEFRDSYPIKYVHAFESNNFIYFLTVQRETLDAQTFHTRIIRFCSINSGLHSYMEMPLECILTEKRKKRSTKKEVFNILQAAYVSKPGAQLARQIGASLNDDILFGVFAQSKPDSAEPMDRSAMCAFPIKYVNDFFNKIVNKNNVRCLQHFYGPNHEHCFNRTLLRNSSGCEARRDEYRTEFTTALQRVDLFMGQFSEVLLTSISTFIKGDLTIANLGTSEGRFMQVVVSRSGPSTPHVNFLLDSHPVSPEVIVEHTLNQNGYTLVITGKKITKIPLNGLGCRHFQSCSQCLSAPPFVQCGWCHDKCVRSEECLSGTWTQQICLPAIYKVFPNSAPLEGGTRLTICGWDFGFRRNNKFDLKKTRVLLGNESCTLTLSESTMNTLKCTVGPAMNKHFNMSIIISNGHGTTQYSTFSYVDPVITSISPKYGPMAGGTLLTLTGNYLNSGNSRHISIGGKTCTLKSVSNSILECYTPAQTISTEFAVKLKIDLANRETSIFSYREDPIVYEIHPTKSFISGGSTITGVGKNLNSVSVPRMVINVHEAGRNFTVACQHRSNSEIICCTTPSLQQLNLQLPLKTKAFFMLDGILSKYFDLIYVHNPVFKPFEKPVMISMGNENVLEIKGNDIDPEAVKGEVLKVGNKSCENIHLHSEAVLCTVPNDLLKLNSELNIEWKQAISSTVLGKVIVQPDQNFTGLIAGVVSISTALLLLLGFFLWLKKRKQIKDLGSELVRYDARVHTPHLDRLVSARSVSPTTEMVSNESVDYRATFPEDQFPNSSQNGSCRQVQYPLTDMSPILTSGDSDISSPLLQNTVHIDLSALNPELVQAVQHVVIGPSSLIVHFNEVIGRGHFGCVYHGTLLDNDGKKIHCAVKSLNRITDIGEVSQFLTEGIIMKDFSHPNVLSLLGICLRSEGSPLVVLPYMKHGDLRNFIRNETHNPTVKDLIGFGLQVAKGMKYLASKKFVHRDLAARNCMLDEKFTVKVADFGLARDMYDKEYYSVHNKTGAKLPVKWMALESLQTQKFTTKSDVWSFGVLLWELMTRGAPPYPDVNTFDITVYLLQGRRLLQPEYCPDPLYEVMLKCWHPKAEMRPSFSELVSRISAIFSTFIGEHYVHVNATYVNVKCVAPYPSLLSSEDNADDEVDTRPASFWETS
In words: GTL-16 c-Met autophosphorylation measured by AlphaScreen detection. Format: cell-based. The settings on record: GTL-16 cells, 1 h incubation, AlphaScreen p-c-Met; read-out: GTL-16 IC50 c-Met phosphorylation. On the procedure:
as §1, §2
GTL-16 c-Met autophosphorylation measured by AlphaScreen® detection: the human MET-amplified gastric cancer cells GTL-16 were plated in 384-well plates at a density of 10′000 cells in 20 ul complete growth medium (DMEM high glucose supplemented with 10% (v/v) heat inactivated fetal calf serum and of 1 mM sodium pyruvate) and were incubated at […]/5% CO2/95% humidity for 20 h. The cells were washed and the 30 ul assay buffer (DMEM high glucose, 1 mM sodium pyruvate, 0.1% bovine serum albumine) was added. Compounds were diluted in 384-well compound plates to obtain 8-point serial dilutions for 40 test compounds in 90% DMSO, as well as a reference compound plus 16 high- and 16 low (inhibited) controls. These compound plates were prediluted 1:200 in assay buffer into a compound predilution plate and 10 ul of prediluted compound solution were transferred to the cell plate using a 384-well pipettor, resulting in a final DMSO concentration of 0.11%. Cells were incubated for 1 h at […]/5% CO2/95% humidity. The supernatant was removed, the cells were lysed in 25 ul of RIPA [radio immuno precipitation assay] lysis buffer supplemented with 2 mM sodium vanadate and a protease inhibitor cocktail, and cell plates were stored at −80° C.
For detection of p-c-Met, an AlphaScreen®-based assay was used. AlphaScreen® (Amplified Luminescent Proximity Homogeneous Assay, ALPHA, Perkin Elmer, U.S.A) is a non-radioactive bead-based proximity assay technology to study biomolecular interactions in a homogenous microtiter plate format. This technique has been adapted to measure the phosphorylation of endogenous cellular proteins in cell lysates by the use of specific antibody pairs against the total protein and a phospho-specific epitope. 5 ul of cell lysate was transferred to 384-well low volume Proxiplates for detection using a 384-well pipettor. First, 5 ul of a premix of an anti-c-Met antibody (0.25 ug/ml f.c.), a biotinylated PY20 antibody (phosphotyrosine antibody, 0.05 ug/ml f.c.) and AlphaScreen® Protein A-coupled acceptor beads (10 ug/ml f.c.) in RIPA buffer supplemented with 0.25% (v/w) TOP BLOCK, 2 mM sodium vanadate, and a protease inhibitor cocktail and was added, the plate was sealed, and incubated on a plate shaker for 2 hours at room temperature. Second, 2 ul of dilution buffer containing AlphaScreen® Streptavidin-coated donor beads (10 ug/ml f.c.) in RIPA buffer was added, and the plate was incubated on plate shaker as above for a further 2 hours. The plate was read on an AlphaScreen® compatible plate reader, using standard AlphaScreen® settings.

The target of experiment [2] is T2, c-Met receptor tyrosine kinase, GST-c-Met(969-1390) (Homo sapiens, UniProt P08581).
T2 construct: made in house
T2 sequence (P08581 969-1390): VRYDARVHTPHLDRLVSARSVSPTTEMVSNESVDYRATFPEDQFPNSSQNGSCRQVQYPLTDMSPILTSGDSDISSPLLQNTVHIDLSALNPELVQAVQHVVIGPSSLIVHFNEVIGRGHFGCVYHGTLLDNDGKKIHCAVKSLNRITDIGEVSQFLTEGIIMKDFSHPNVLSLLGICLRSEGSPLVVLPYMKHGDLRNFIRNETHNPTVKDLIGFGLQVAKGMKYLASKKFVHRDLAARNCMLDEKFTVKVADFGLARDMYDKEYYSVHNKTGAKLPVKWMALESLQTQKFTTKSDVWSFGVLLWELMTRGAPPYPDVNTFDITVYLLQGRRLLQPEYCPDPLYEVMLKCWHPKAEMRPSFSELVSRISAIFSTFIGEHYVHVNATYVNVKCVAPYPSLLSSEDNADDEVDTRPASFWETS
Put plainly: EPK c-Met profiling assay (LanthaScreen TR-FRET kinase assay). Format: biochemical. The following applies: 2 μM ATP, 0.3 nM enzyme, 60 minutes at room temperature. On the procedure: A number of compounds of the present invention were assayed in an antibody based kinase phosphorylation assay as follows.
Epk c-Met Profiling Assay:
The EPK kinase assay for c-Met receptor tyrosine kinase was developed, using the purified recombinant GST-fusion protein, containing the cytoplasmic domain of the enzyme. GST-c-Met(969-1390) was purified by affinity chromatography.
The kinase assay is based on the LanthaScreen™ technology. LanthaScreen™ is the detection of Time-Resolved Fluorescence Resonance Energy Transfer (TR-FRET) using lanthanide chelates to measure interactions between various binding partners. In a TR-FRET kinase assay, a long-lifetime lanthanide donor species is conjugated to an antibody that specifically binds to a phosphorylated product of a kinase reaction that is labeled with a suitable acceptor fluorophore. This antibody-mediated interaction brings the lanthanide donor and the acceptor into proximity such that resonance energy transfer can take place, resulting in a detectible increase in the FRET signal.
The kinase reactions were performed in 384 well microtiter plates in a total reaction volume of 9.05 μL. The assay plates were prepared with 0.05 μL per well of test compound in the appropriate test concentration, as described under “preparation of compound dilutions”. The reactions were started by combining 4.5 μL of ATP solution with 4.5 μL of enzyme-substrate mix (consisting of kinase and substrate). The final concentrations in the kinase reactions were 35 mM Tris/HCl, 1 mM DTT, 0.025% Tween20, 10 μM sodium orthovanadate, 0.25% BSA, 0.6% DMSO, 10 mM MgCl2, 3 mM MnCl2, 2 μM ATP, 50 nM Fluorescein-PolyEAY, and 0.3 nM enzyme.
The reactions were incubated for 60 minutes at room temperature and stopped by adding 4.5 μL of stop buffer (50 mM EDTA, 0.04% NP40, 20 mM Tris/HCl).
Subsequently 4.5 μL of detection mix (50 mM Tris/HCl, 2 mM DTT, 0.05% Tween20, 20 μM sodium orthovanadate, 1% BSA, 1.72 μg/mL Tb-PY20 antibody) were added to the stopped reactions. After 30 minutes incubation at room temperature, the plates were measured in a BMG Pherastar fluorescence reader. The effect of compound on the enzymatic activity was in all assays obtained from the linear progress curves and determined from one reading (end point measurement).
Preparation of Compound Dilutions
Test compounds were dissolved in DMSO (10 mM) and transferred into 1.4 mL flat bottom or V-shaped Matrix tubes carrying a unique 2D matrix. The stock solutions were stored at −20° C. if not used immediately. For the test procedure the vials were defrosted and identified by a scanner whereby a working sheet was generated that guided the subsequent working steps.
Compound dilutions were made in 96 well plates. This format enabled the assay of maximally 40 individual test compounds at 8 concentrations (single points) including 4 reference compounds. The dilution protocol included the production of “pre-dilution plates”, “master plates” and “assay plates”.
Pre-dilution plates: 96 polypropylene well plates were used as pre-dilution plates. A total of 4 pre-dilution plates were prepared including 10 test compounds each on the plate positions A1-A10, one standard compound at A11 and one DMSO control at A12. All dilution steps were done on a HamiltonSTAR robot.
Master plates: 100 μL of individual compound dilutions including standard compound and controls of the 4 “pre-dilution plates” were transferred into a 384 “master plate” including the following concentrations 1′820, 564, 182, 54.6, 18.2, 5.46, 1.82 and 0.546 μM, respectively in 90% of DMSO.
Assay plates: Identical “assay plates” were then prepared by pipetting 50 nL each of compound dilutions of the “master plates” into 384-well “assay plates” by means of a HummingBird 384-channel dispenser. These plates were used directly for the assay which was performed in a total volume of 9.05 μL. […]

pIC50: −log10 of the molar value.

For the compound `CC(c1c(F)cc2ncccc2c1F)c1cnc2ccc(N3CCNC(=O)C3)nn12` (racemic) [Example 3, (rac)-4-{3-[1-(5,7-Difluoro-quinolin-6-yl)-ethyl]-imidazo[1,2-b]pyridazin-6-yl}-piperazin-2-one], the negative logarithm of the IC50 (pIC50) in experiment [1] is 8.22; at c-Met it was more than 8.52; in experiment [2] it was 8.28.

For the compound `CC(c1c(F)cc2ncccc2c1F)c1cnc2ccc(N3CCN(c4ccccn4)C(=O)C3)nn12` (racemic) [Example 25, (rac)-4-{3-[1-(5,7-Difluoro-quinolin-6-yl)-ethyl]-imidazo[1,2-b]pyridazin-6-yl}-1-(pyridin-2-yl)piperazin-2-one], the negative-log IC50 (pIC50) in experiment [1] is 7.89; at c-Met, 8.10; in experiment [2], 7.82.

With `Fc1cc2ncccc2c(F)c1Cc1cnc2ccc(N3CCNCC3)nn12` [Example 32, 5,7-Difluoro-6-(6-piperazin-1-yl-imidazo[1,2-b]pyridazin-3-ylmethyl)-quinoline], the pIC50 in experiment [1] is 7.60; at c-Met, more than 8.52; in experiment [2] it was 8.13.

On to `CC(c1c(F)cc2ncccc2c1F)c1cnc2ccc(N3CC(=O)NCC3C)nn12` (racemic) [Example 23, (rac)-4-{3-[1-(5,7-Difluoro-quinolin-6-yl)-ethyl]-imidazo[1,2-b]pyridazin-6-yl}-5-methylpiperazin-2-one], for which the values for the negative-log IC50 (pIC50) (in experiment [1]; at c-Met; in experiment [2]) were 8.07, 8.48 and 7.82, respectively.

Regarding `CC(=O)N1CCN(c2ccc3ncc(Cc4c(F)cc5ncccc5c4F)n3n2)CC1` [Example 34, 1-{4-[3-(5,7-Difluoro-quinolin-6-ylmethyl)-imidazo[1,2-b]pyridazin-6-yl]-piperazin-1-yl}-ethanone], the pIC50 in experiment [1] was 7.19; on c-Met, 8.15; in experiment [2], 8.00.

Consider `C[C@@H](c1c(F)cc2c(cnn2C)c1F)c1cnc2ccc(N3CCN(C)C(=O)C3)nn12` [Example 50, 4-{3-[(S)-1-(4,6-Difluoro-1-methyl-1H-indazol-5-yl)-ethyl]-imidazo[1,2-b]pyridazin-6-yl}-1-methyl-piperazin-2-one], for which the values for the pIC50 (in experiment [1]; on c-Met; in experiment [2]) were 7.96, 8.57 and 8.08, respectively.

Take `O=CN1CCN(c2ccc3ncc(Cc4c(F)cc5ncccc5c4F)n3n2)CC1` [Example 35, 4-[3-(5,7-Difluoro-quinolin-6-ylmethyl)-imidazo[1,2-b]pyridazin-6-yl]-piperazine-1-carbaldehyde]: the pIC50 in experiment [1] was 7.35; at c-Met it was 8.10; in experiment [2], 8.00.

In the case of `CC(c1ccc2ncccc2c1F)c1cnc2ccc(N3CCN(C)C(=O)C3)nn12` (racemic) [Example 46, (rac)-4-{3-[1-(5-Fluoro-quinolin-6-yl)-ethyl]-imidazo[1,2-b]pyridazin-6-yl}-1-methyl-piperazin-2-one], the pIC50 is 7.33 in experiment [1], 7.82 at c-Met and 7.52 in experiment [2].

For `CC(c1cc2cnn(C)c2cc1F)c1cnc2ccc(N3CCNC(=O)C3)nn12` (racemic) [Example 27, (rac)-4-{3-[1-(6-Fluoro-1-methyl-1H-indazol-5-yl)-ethyl]-imidazo[1,2-b]pyridazin-6-yl}-piperazin-2-one], the negative logarithm of the IC50 (pIC50) in experiment [1] was 6.76; at c-Met, 8.52; in experiment [2] it was 7.14.

In the case of `CC(c1ccc2ncccc2c1F)c1cnc2ccc(N3CCNC(=O)C3)nn12` (racemic) [Example 47, (rac)-4-{3-[1-(5-Fluoro-quinolin-6-yl)-ethyl]-imidazo[1,2-b]pyridazin-6-yl}-piperazin-2-one], the negative-log IC50 (pIC50) was 7.72 in experiment [1], 8.26 at c-Met and 7.82 in experiment [2].

Turning to `CC(c1cc2cccnc2cc1F)c1cnc2ccc(N3CCNC(=O)C3)nn12` (racemic) [Example 41, (rac)-4-{3-[1-(7-Fluoro-quinolin-6-yl)-ethyl]-imidazo[1,2-b]pyridazin-6-yl}-piperazin-2-one], the pIC50 is 7.31 in experiment [1], more than 8.52 on c-Met and 7.64 in experiment [2].

Consider `CC(c1c(F)cc2ncccc2c1F)c1cnc2ccc(N3CCN(C(N)=O)CC3)nn12` (racemic) [Example 15, (rac)-4-{3-[1-(5,7-Difluoro-quinolin-6-yl)-ethyl]-imidazo[1,2-b]pyridazin-6-yl}-piperazine-1-carboxylic acid amide], for which the results for the negative-log IC50 (pIC50) (in experiment [1]; on c-Met; in experiment [2]) were 7.74, 8.08 and 8.27, respectively.

`C[C@@H](c1c(F)cc2ncccc2c1F)c1cnc2ccc(N3CCN(C)CC3)nn12` [Example 9, 5,7-Difluoro-6-{(S)-1-[6-(4-methyl-piperazin-1-yl)-imidazo[1,2-b]pyridazin-3-yl]-ethyl}-quinoline]: the negative-log IC50 (pIC50) in experiment [1] was 8.00; on c-Met, 8.66; in experiment [2], 8.54.

Source of the values: US8389526B2, “3-heteroarylmethyl-imidazo[1,2-b]pyridazin-6-yl derivatives” (Novartis AG, priority 2009, dated 2013).
